Test results published in patent publication US20240092759A1, “Non-Covalent Inhibitors of the Main Protease of SARS-CoV-2 and Methods of Use” (YALE UNIVERSITY, priority 2021, published 2024).
Values joined by “and” are separate entries in the source; they are usually repeats but may differ in a detail not shown here. Identical values can stand only once. Like-named read-outs stand apart in the source and are kept apart here.

How the values were obtained:
[1] = biological target: recombinant SARS-Cov-2 M^pro (Severe acute respiratory syndrome coronavirus 2 (2019-nCoV) (SARS-CoV-2), UniProt P0DTD1); experiment: biochemical
[2] = test system: infectious SARS-CoV-2 (isolate USA-WA1/2020); experiment: Antiviral assay, cytopathic effect by MTT in Vero E6 cells; format: cell-based; conditions: for EC50: Severe acute respiratory syndrome coronavirus 2, Vero C1008
[3] = test system: infectious SARS-CoV-2 (isolate USA-WA1/2020); experiment: microbe, parasite or virus in culture; format: cell-based; conditions: for EC50: Severe acute respiratory syndrome coronavirus 2, Vero C1008, Vero E6 cells, footnote b: drop in viral titer/incomplete inhibition, read-out: EC50 Plaque
[4] = test system: Vero E6 cells; experiment: Cellular cytotoxicity by MTT in Vero E6 cells; conditions: for cytotoxicity: Vero E6 and NHBE cells; for CC50: read-out: CC50 Vero E6, absence of virus
[5] = test system: normal human bronchial epithelial cells (NHBE); experiment: Cellular cytotoxicity by MTT in normal human bronchial epithelial cells; conditions: for CC50: read-out: CC50 NHBE, MTT
[6] = read-out: IC50 (μM), inhibition of SARS-CoV-2 M^pro, Table 1, 100 nM M^pro, triplicate, perampanel: fluorescence of compound interfered with assay
[7] = read-out: IC50 (μM), inhibition of SARS-Cov-2 M^pro, Table 4
[8] = IC50 (μM), inhibition of SARS-Cov-2 M^pro, Table 4

N#Cc1ccccc1-c1cc(-c2cccc(Cl)c2)c(=O)n(-c2cccnc2)c1 [Compound 6, 2-(3-(3-Chlorophenyl)-2-oxo-2H-[1,3′-bipyridin]-5-yl)benzonitrile]
IC50 ([1]; read-out: IC50): 10 µM
IC50 [1, 6]: 9.99 ± 2.5 µM

O=c1[nH]cc(-c2cc(-c3cccc(Cl)c3)c(=O)n(-c3cccnc3)c2)c(=O)[nH]1 [Compound 8, 5-(3-(3-Chlorophenyl)-2-oxo-2H-[1,3′-bipyridin]-5-yl)pyrimidine-2,4(1H,3H)-dione]
IC50 ([1]; read-out: IC50): 6.4 µM
IC50 [1, 7]: 6.38 ± 1.21 µM

N#Cc1ccccc1-c1cc(-c2cccc(Cl)c2)c(=O)n(-c2ccc[n+]([O-])c2)c1 [Compound 10]
IC50 [1, 7]: 15.6 ± 2.37 µM

N#Cc1ccccc1-c1cc(-c2cc(Cl)cc(Cl)c2)c(=O)n(-c2ccc[n+]([O-])c2)c1 [Compound 11]
IC50 [1, 7]: 5 to 20 µM

N#Cc1ccccc1-c1cc(-c2cc(Cl)cc(OCc3ccccc3)c2)c(=O)n(-c2cccnc2)c1 [Compound 14, 2-(3-(3-(Benzyloxy)-5-chlorophenyl)-2-oxo-2H-[1,3′-bipyridin]-5-yl)benzonitrile]
IC50 ([1]; read-out: IC50): 0.28 µM
IC50 [1, 6]: 0.28 ± 0.05 µM
IC50 [1, 7]: 0.28 ± 0.05 µM

COCCOc1cc(Cl)cc(-c2cc(-c3ccccc3C#N)cn(-c3cccnc3)c2=O)c1 [Compound 16, 2-(3-(3-Chloro-5-(2-methoxyethoxy)phenyl)-2-oxo-2H-[1,3′-bipyridin]-5-yl)benzonitrile]
IC50 [1, 6]: 0.47 ± 0.02 µM
IC50 [1, 7]: 0.47 ± 0.02 µM

N#Cc1ccccc1-c1cc(-c2cc(Cl)cc(OCCc3ccccc3)c2)c(=O)n(-c2cccnc2)c1 [Compound 17, 2-(3-(3-Chloro-5-phenethoxyphenyl)-2-oxo-2H-[1,3′-bi-pyridin]-5-yl)benzonitrile]
IC50 ([1]; read-out: IC50): 0.51 µM
IC50 [1, 6]: 0.51 ± 0.02 µM
IC50 [1, 7]: 0.51 ± 0.015 µM

COc1cc(Cl)cc(-c2cc(-c3c[nH]c(=O)[nH]c3=O)cn(-c3cccnc3)c2=O)c1 [Compound 18, 5-(3-(3-Chloro-5-methoxyphenyl)-2-oxo-2H-[1,3′-bipyridin]-5-yl)pyrimidine-2,4(1H,3H)-dione]
IC50 ([1]; read-out: IC50): 1.2 µM
IC50 [1, 6]: 1.2 ± 0.03 µM
IC50 [1, 7]: 1.2 ± 0.03 µM

N#Cc1cccc(-c2cc(-c3c[nH]c(=O)[nH]c3=O)cn(-c3cccnc3)c2=O)c1 [Compound 19]
IC50 [1, 7]: 10 µM

COc1cc(F)cc(-c2cc(-c3c[nH]c(=O)[nH]c3=O)cn(-c3cccnc3)c2=O)c1 [Compound 20]
IC50 [1, 7]: 10 to 100 µM

O=c1[nH]cc(-c2cc(-c3cc(Cl)cc(OCc4ccccc4)c3)c(=O)n(-c3cccnc3)c2)c(=O)[nH]1 [Compound 21]
IC50 ([1]; read-out: IC50): 0.128 µM
IC50 [1, 7]: 0.128 ± 0.015 µM

COc1ccc(-c2cc(-c3cccc(Cl)c3)c(=O)n(-c3cccnc3)c2)c(C#N)n1 [Compound 22]
IC50 [1, 7]: 10 to 100 µM

N#Cc1[nH]c(=O)ccc1-c1cc(-c2cccc(Cl)c2)c(=O)n(-c2cccnc2)c1 [Compound 23]
IC50 [1, 7]: 10 µM

CCCCOc1cc(Cl)cc(-c2cc(-c3c[nH]c(=O)[nH]c3=O)cn(-c3cccnc3)c2=O)c1 [Compound 25, 5-(3-(3-Butoxy-5-chlorophenyl)-2-oxo-2H-[1,3′-bipyridin]-5-yl)pyrimidine-2,4(1H,3H)-dione]
IC50 [1, 6]: 0.25 ± 0.09 µM
IC50 [1, 7]: 0.25 ± 0.089 µM

CC(C)CCOc1cc(Cl)cc(-c2cc(-c3c[nH]c(=O)[nH]c3=O)cn(-c3cccnc3)c2=O)c1 [Compound 26, 5-(3-(3-Chloro-5-(isopentyloxy)phenyl)-2-oxo-2H-[1,3′-bipyridin]-5-yl)pyrimidine-2,4(1H, 3H)-dione]
IC50 [1, 6]: 0.19 ± 0.03 µM
IC50 [1, 7]: 0.19 ± 0.026 µM

CC(C)(O)CCOc1cc(Cl)cc(-c2cc(-c3c[nH]c(=O)[nH]c3=O)cn(-c3cccnc3)c2=O)c1 [Compound 28]
IC50 [1, 7]: 0.25 to 0.5 µM

O=c1[nH]cc(-c2cc(-c3cc(Cl)cc(OCCc4ccccc4)c3)c(=O)n(-c3cccnc3)c2)c(=O)[nH]1 [Compound 29, 5-(3-(3-Chloro-5-phenethoxyphenyl)-2-oxo-2H-[1,3′-bipyridin]-5-yl)pyrimidine-2,4(1H, 3H)-dione]
IC50 ([1]; read-out: IC50): 0.11 µM
IC50 [1, 6]: 0.11 ± 0.013 µM

COc1cc(CCOc2cc(Cl)cc(-c3cc(-c4ccccc4C#N)cn(-c4cccnc4)c3=O)c2)cc(OC)c1 [Compound 30]
IC50 [1, 7]: > 1 µM

Cc1ccccc1COc1cc(Cl)cc(-c2cc(-c3c[nH]c(=O)[nH]c3=O)cn(-c3cccnc3)c2=O)c1 [Compound 31, 5-(3-(3-Chloro-5-((2-methylbenzyl)oxy)phenyl)-2-oxo-2H-[1,3′-bipyridin]-5-yl)pyrimidine-2,4(1H,3H)-dione]
IC50 ([1]; IC50): 0.11 µM
IC50 [1, 6]: 0.1 ± 0.007 µM

Cc1cccc(COc2cc(Cl)cc(-c3cc(-c4c[nH]c(=O)[nH]c4=O)cn(-c4cccnc4)c3=O)c2)c1 [Compound 32, 5-(3-(3-Chloro-5-((3-methylbenzyl)oxy)phenyl)-2-oxo-2H-[1,3′-bipyridin]-5-yl)pyrimidine-2,4(1H,3H)-dione]
IC50 ([1]; IC50): 0.1 µM
IC50 [1, 6]: 0.11 ± 0.035 µM
IC50 [1, 7]: 0.11 ± 0.035 µM

CCNC(=O)COc1cc(Cl)cc(-c2cc(-c3ccccc3C#N)cn(-c3cccnc3)c2=O)c1 [Compound 33]
IC50 [1, 7]: 0.5 to 1 µM

O=c1[nH]cc(-c2cc(-c3cc(Cl)cc(OCc4ccccc4F)c3)c(=O)n(-c3cccnc3)c2)c(=O)[nH]1 [Compound 34, 5-(3-(3-Chloro-5-((2-fluorobenzyl)oxy)phenyl)-2-oxo-2H-[1,3′-bipyridin]-5-yl)pyrimidine-2,4(1H,3H)-dione]
IC50 ([1]; read-out: IC50): 0.018 to 0.037 µM
IC50 [1, 6]: 0.024 ± 0.007 µM
IC50 [1, 7]: 0.024 µM

O=c1[nH]cc(-c2cc(-c3cc(Cl)cc(OCc4cccc(F)c4)c3)c(=O)n(-c3cccnc3)c2)c(=O)[nH]1 [Compound 35, 5-(3-(3-Chloro-5-((3-fluorobenzyl)oxy)phenyl)-2-oxo-2H-[1,3′-bipyridin]-5-yl)pyrimidine-2,4(1H,3H)-dione]
IC50 ([1]; read-out: IC50): 0.018 to 0.037 µM
IC50 [1, 7]: 0.037 µM

O=c1[nH]cc(-c2cc(-c3cc(Cl)cc(OCc4c(F)cccc4F)c3)c(=O)n(-c3cccnc3)c2)c(=O)[nH]1 [Compound 36, 5-(3-(3-Chloro-5-((2,6-difluorobenzyl)oxy)phenyl)-2-oxo-2H-[1,3′-bipyridin]-5-yl)pyrimidine-2,4(1H,3H)-dione]
IC50 ([1]; read-out: IC50): 0.018 to 0.037 µM
IC50 [1, 7]: 0.036 µM

O=c1[nH]cc(-c2cc(-c3cc(Cl)cc(OCc4ccccc4Cl)c3)c(=O)n(-c3cccnc3)c2)c(=O)[nH]1 [Compound 37, 5-(3-(3-Chloro-5-((2-chlorobenzyl)oxy)phenyl)-2-oxo-2H-[1,3′-bipyridin]-5-yl)pyrimidine-2,4(1H,3H)-dione]
antiviral activity in the MTT assay [2]: lacked antiviral activity
antiviral activity in the viral plaque assay [3]: showed activity
EC50 [3]: 11300 nM
cytotoxicity [4]: greatest cytotoxicity
CC50 [4]: 1700 ± 900 nM
CC50 [5]: 2000 ± 100 nM

N#Cc1ccccc1-c1cc(-c2cc(Cl)cc(OCC3CC3)c2)c(=O)n(-c2cccnc2)c1 [Compound 39, 2-(3-(3-Chloro-5-(cyclopropylmethoxy)phenyl)-2-oxo-2H-[1,3′-bipyridin]-5-yl)benzonitrile]
EC50 ([2]; Vero E6 cells, MOI 0.01, 72 h, NA = not active, read-out: EC50 MTT): 2000 ± 700 nM
EC50 ([2]; read-out: EC50, MTT assay): ~1000 nM
cytotoxicity [4]: no cytotoxicity to the highest concentration tested (100 μM)
CC50 [4]: > 100000 nM
CC50 [5]: > 100000 nM

O=c1[nH]cc(-c2cc(-c3cc(Cl)cc(OCC4CC4)c3)c(=O)n(-c3cccnc3)c2)c(=O)[nH]1 [Compound 40, 5-(3-(3-Chloro-5-(cyclopropylmethoxy)phenyl)-2-oxo-2H-[1,3′-bipyridin]-5-yl)pyrimidine-2,4(1H,3H)-dione]
IC50 [1, 8]: ~290 µM

O=c1[nH]cc(-c2cc(-c3cc(Cl)cc(OCC4CC4)c3)c(=O)n(-c3cccnc3)c2)c(=O)[nH]1 [Compound 43]
IC50 [1, 7]: 0.037 ± 0.004 µM

O=c1[nH]cc(-c2cc(-c3cc(F)c(F)c(OCc4ccccc4F)c3)c(=O)n(-c3cccnc3)c2)c(=O)[nH]1 [Compound 45]
IC50 [1, 7]: 0.03 ± 0.004 µM

O=c1[nH]cc(-c2cc(-c3cc(Cl)cc(OCc4ccccc4)c3)c(=O)n(-c3cccnc3)c2)c(=O)[nH]1 [Compound 46, 5-(3-(3-(Benzyloxy)-5-chlorophenyl)-2-oxo-2H-[1,3′-bipyridin]-5-yl)pyrimidine-2,4(1H,3H)-dione]
antiviral activity in the viral plaque assay [3]: antiviral activity was found
EC50 [3]: 3200 nM
CC50 [4]: 12300 ± 7000 nM
CC50 [5]: 17500 ± 5500 nM

N#Cc1ccccc1-c1cc(-c2cc(Cl)cc(OCCC(F)(F)F)c2)c(=O)n(-c2cccnc2)c1 [Compound 47, 2-(3-(3-Chloro-5-(3,3,3-trifluoropropoxy)phenyl)-2-oxo-2H-[1,3′-bipyridin]-5-yl)benzonitrile]
CC50 [4]: 22000 ± 8000 nM
cytotoxicity towards the NHBE cells ([5]; compared with 39): more cytotoxic
CC50 [5]: 25000 ± 5000 nM

O=c1[nH]cc(-c2cc(-c3cc(Cl)cc(OCc4ccsc4Cl)c3)c(=O)n(-c3cccnc3)c2)c(=O)[nH]1 [Compound 49]
IC50 [1, 7]: 0.0265 ± 0.004 µM

N#Cc1ccccc1-c1cc(-c2ccccn2)cn(-c2ccccc2)c1=O [Perampanel, perampanel, reference compound]
IC50 ([1]; IC50): 100 to 250 µM and > 100 µM
IC50 ([1]; IC50 (μM), inhibition of SARS-CoV-2 M^pro, Table 1, 100 nM M^pro, triplicate, perampanel: fluorescence of compound interfered with assay): 100 to 250 µM
IC50 [1, 8]: 100 µM

CCC(CC)COC(=O)[C@H](C)N[P@](=O)(OC[C@H]1O[C@@](C#N)(c2ccc3c(N)ncnn23)[C@H](O)[C@@H]1O)Oc1ccccc1 [remdesivir, reference compound]
CC50 [4]: 72000 ± 28000 nM
CC50 [5]: 41000 ± 2000 nM
